Among the test systems are MDA-N; HS 578T breast; T-47D breast; SN12K1 renal; P388 leukemia; LXFL 529 NSCLC; 786-0 renal; RXF-631 renal.
Common to all, as to assay: NCI tumour cell line growth inhibition, 48 h

Each structure is given as a SMILES string.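 96-well plates; 48 h exposure; 5 concentrations. Endpoints by linear interpolation between flanking doses. Not reached: highest tested concentration assigned. The concentration for 50% growth inhibition is given as GI50. At the TGI there is no net growth.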

As for `CC(=O)Oc1ccc2c(c1)oc1c3ccc(OC(C)=O)cc3n(C)c(=O)c21`, the TGI in the test with MDA-N, with HS 578T breast and in the test with T-47D breast was greater than 100 µM throughout.
In the case of `O=[N+]([O-])c1ccccc1NC1c2ccccc2Oc2ccccc21`, in the test on HS 578T breast, the GI50 was 8350 nM and the TGI was greater than 100 µM. In the test on T-47D breast, the GI50 was 27800 nM and the TGI is greater than 100 µM.
In the case of `CCN(CC)CCCNc1ncc(C)c2[nH]c3ccncc3c12`, the results for the TGI in the test with SN12K1 renal and with P388 leukemia were 19.9 µM and 15.3 µM, respectively.
With `COC(=O)c1cccc(N[C@@H]2c3cc4c(cc3C(c3cc(OC)c(O)c(OC)c3)[C@H]3C(=O)OCC32)OCO4)c1` (stereo partly specified), the TGI was 9.75 µM in the test with SN12K1 renal and 0.826 µM with P388 leukemia.
Turning to `N=C(N)c1ccc(-c2ccc(-c3ccccc3)s2)cc1`, the GI50 was 1940 nM with HS 578T breast and 1830 nM with T-47D breast. Moreover, the TGI came to 5.04 µM in the test with HS 578T breast and 4.79 µM in the test on T-47D breast.
Consider `S=P1(N2CCCCC2)Oc2ccc3ccccc3c2-c2c(ccc3ccccc23)O1`, for which the TGI with SN12K1 renal and with P388 leukemia was greater than 100 µM each time.
For `CCCCCCCC/C=C\CCCCCCCC(=O)O`, the TGI with SN12K1 renal is 175 µM; in the test on P388 leukemia it was 274 µM.
In the case of `Cc1cc(C)c2c(c1)CC1(Cc3c(C)ccc(C)c3C1=O)C2=O` (stereo unspecified), the TGI in the test on MDA-N, in the test with HS 578T breast and with T-47D breast was greater than 100 µM throughout.
Turning to `O=C(O)CS`, the TGI in the test with LXFL 529 NSCLC and in the test on 786-0 renal was greater than 100 µM each time.
On to `COc1cc(/C=C/c2cc(/C=C/c3ccc(O)c(OC)c3)nc(N)n2)ccc1O`, for which, in the test with HS 578T breast, the GI50 is 524 nM and the TGI worked out at 2.99 µM. Further, in the test on T-47D breast, the GI50 is 2830 nM and the TGI came out at 9.55 µM.
Compound `CCNc1nnc(-c2nsc3ccccc23)s1` gave a TGI in the test with LXFL 529 NSCLC greater than 100 µM.
Consider `O=C1C=CC2=[N+]([O-])C(c3ccccc3)(c3ccccc3)C(=Nc3ccccc3)C2=C1`, for which the TGI in the test with LXFL 529 NSCLC was determined as 3.36 µM; in the test with RXF-631 renal it was 11.1 µM.
As to `C=C1C(=O)C[C@@]23CCC[C@@]12CC(OCOC)C3` (stereo partly specified), the TGI with SN12K1 renal was 4.13 µM; in the test with P388 leukemia, 1.92 µM.
`CC(C)CCC[C@@H](C)C1CCC2[C@@H]3CC=C4C[C@@H](C(=O)NCC[N+](C)(C)CCCS(=O)(=O)[O-])CC[C@]4(C)C3CC[C@@]21C` (stereo partly specified): the TGI in the test with LXFL 529 NSCLC was found to be 33.3 µM; in the test with 786-0 renal, 31.1 µM; in the test on RXF-631 renal it was 34.6 µM.

For the origin of these results see PubChem BioAssay (NCI).
